Measurements reported in patent US11214803B2, “Modulators of YAP1 expression” (Ionis Pharmaceuticals, Inc., priority 2019, dated 2022).
Strand notation (5' to 3'): a small letter for the sugar, then the base; units joined by * are phosphorothioate-linked, units joined directly phosphodiester-linked; [ ] holds rarer units or linkages, { } end groups; capitals alone tell only the bases. e = 2'-O-(2-methoxyethyl) (MOE); k = constrained ethyl (cEt); [5mC] = 5-methylcytosine; d = 2'-deoxy (DNA); m = 2'-O-methyl

Test system: Yap1 mRNA
Experiment: Dose-dependent inhibition of human Yap1 in SNU-449 cells (Example 9, RTS36584)
Type: cell-based
Settings: free uptake; for % UTC (Yap1 mRNA): approximately 48 hours; for IC50: linear regression on a log/linear plot
In short: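 Read-out was Yap1 mRNA (primer-probe RTS36584) normalised to total RNA by RIBOGREEN, given as % of untreated cells, with IC50 fitted by linear regression of log/linear data. Oligonucleotides were dosed by free uptake to SNU-449 cells, 10,000/well, for ~48 h.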

| Substance | % UTC (Yap1 mRNA) (31.3 nM) [% UTC] | % UTC (Yap1 mRNA) (125.0 nM) [% UTC] | % UTC (Yap1 mRNA) (500.0 nM) [% UTC] | % UTC (Yap1 mRNA) (2000.00 nM) [% UTC] | IC50 [nM] |
| --- | --- | --- | --- | --- | --- |
| 1197312 (kT*kG*kT*dA*mU*dG*dT*d[5mC]*dA*dG*dA*dA*dG*kA*kG*kT; antisense) [compound 1197312] | 101 | 58 | 34 | 11 | 300 |
| 1200784 (kT*kG*kT*d[5mC]*dT*mC*dA*dT*dG*d[5mC]*d[5mC]*dT*dT*kA*kT*kA; antisense) [compound 1200784] | 70 | 51 | 26 | 12 | 100 |
| 1198555 (kA*kT*kT*dA*dG*dA*dG*dT*dA*dT*dG*dT*kG*kG*k[5mC]*eA; antisense) [compound 1198555] | 73 | 40 | 19 | 9 | 100 |
| 1198552 (kA*kG*kA*dG*dT*dA*dT*dG*dT*dG*dG*d[5mC]*kA*kA*kT*eA; antisense) [compound 1198552] | 72 | 46 | 23 | 9 | 100 |
| 1197236 (kT*kA*kT*dT*mA*dG*dA*dG*dT*dA*dT*dG*dT*kG*kG*k[5mC]; antisense) [compound 1197236] | 64 | 46 | 25 | 14 | 100 |
| 1198213 (kA*kT*dA*dT*dT*dA*dG*dA*dG*dT*dA*eT*eG*eT*kG*kG) [compound 1198213] | 91 | 33 | 11 | 3 | 100 |
| 1198492 (kG*k[5mC]*dT*dT*dT*dG*dG*dA*dA*dG*dA*eT*k[5mC]*eT*kG*eA; antisense) [compound 1198492] | 67 | 39 | 19 | 10 | 100 |
| 1198804 (kT*kG*dT*d[5mC]*dT*d[5mC]*dA*dT*dG*d[5mC]*d[5mC]*kT*eT*kA*eT*kA; antisense) [compound 1198804] | 71 | 48 | 19 | 5 | 100 |
| 1198294 (kA*kG*kA*dG*dT*dA*dT*dG*dT*dG*dG*d[5mC]*kA*eA*kT*eA; antisense) [compound 1198294] | 59 | 33 | 14 | 5 | 50 |
| 1198524 (kT*kG*dT*dA*dT*dG*dT*d[5mC]*dA*dG*dA*eA*kG*eA*kG*eT; antisense) [compound 1198524] | 50 | 32 | 9 | 3 | < 30 |
| 1200796 (kT*kT*kA*dG*dA*mG*dT*dA*dT*dG*dT*dG*dG*k[5mC]*kA*kA; antisense) [compound 1200796] | 69 | 47 | 25 | 12 | 100 |
| 1200803 (kG*kG*kT*dA*dT*mA*dA*d[5mC]*dT*dG*dG*dG*d[5mC]*kA*kA*kA; antisense) [compound 1200803] | 72 | 52 | 34 | 18 | 200 |
| 1198502 (kA*kG*dA*dT*dT*dT*dA*dG*dG*dA*dT*eG*k[5mC]*eA*kT*eG; antisense) [compound 1198502] | 76 | 50 | 29 | 15 | 200 |
| 1198788 (kA*eA*kG*dT*dG*dT*dA*dT*dG*dT*d[5mC]*dA*eG*eA*kA*kG) [compound 1198788] | 64 | 30 | 7 | 2 | 100 |
| 1198423 (TCTTATATGGTTTTGT; all C 5-methyl, all phosphorothioate, sugars by position not given here; cEt/MOE mixed gapmer, notation at position 4 garbled) [compound 1198423] | 58 | 35 | 15 | 6 | 50 |
| 1198202 (kG*kA*dA*dA*dT*dT*dG*dT*d[5mC]*dT*d[5mC]*eA*eT*eG*k[5mC]*k[5mC]; antisense) [compound 1198202] | 83 | 46 | 16 | 5 | 100 |

| Substance | % UTC (Yap1 mRNA) (31.3 nM) [% UTC] | % UTC (Yap1 mRNA) (125.0 nM) [% UTC] | % UTC (Yap1 mRNA) (500.0 nM) [% UTC] | % UTC (Yap1 mRNA) (2000.00 nM) [% UTC] | IC50 [nM] |
| --- | --- | --- | --- | --- | --- |
| 1198354 (kA*kA*kG*dT*dG*dT*dA*dT*dG*dT*d[5mC]*dA*kG*eA*kA*eG) [compound 1198354] | 66 | 24 | 5 | 1 | 50 |
| 1198355 (kA*kA*kA*dG*dT*dG*dT*dA*dT*dG*dT*d[5mC]*kA*eG*kA*eA; antisense) [compound 1198355] | 63 | 34 | 10 | 4 | 100 |
| 1198353 (kA*kG*kT*dG*dT*dA*dT*dG*dT*d[5mC]*dA*dG*kA*eA*kG*eA; antisense) [compound 1198353] | 60 | 30 | 10 | 4 | 40 |
| 1198911 (kG*kA*dG*dG*dT*dA*dT*dA*dA*d[5mC]*dT*kG*dG*kG*d[5mC]*kA; antisense) [compound 1198911] | 62 | 31 | 12 | 7 | 50 |
| 1198288 (kG*kA*kA*dA*dT*dT*dG*dT*d[5mC]*dT*d[5mC]*dA*kT*eG*k[5mC]*e[5mC]; antisense) [compound 1198288] | 77 | 43 | 17 | 7 | 100 |
| 1197193 (AGGATGCATGGTTTTT; chemistry not fully specified) [compound 1197193] | 85 | 52 | 24 | 11 | 200 |
| 1197176 (kT*kG*kT*d[5mC]*dT*d[5mC]*dA*dT*dG*d[5mC]*d[5mC]*dT*dT*kA*kT*kA; antisense) [compound 1197176] | 66 | 37 | 19 | 6 | 100 |
| 1198877 (kT*kT*dA*dA*dA*dG*dT*dG*dT*dA*dT*kG*eT*k[5mC]*eA*kG; antisense) [compound 1198877] | 62 | 32 | 13 | 5 | 50 |
| 1198365 (k[5mC]*kT*kA*dA*dG*dT*dA*dA*dG*dG*dT*dT*kT*e[5mC]*k[5mC]*e[5mC]; antisense) [compound 1198365] | 59 | 38 | 15 | 5 | 100 |
| 1198504 (kT*k[5mC]*dA*dG*dA*dT*dT*dT*dA*dG*dG*eA*kT*eG*k[5mC]*eA; antisense) [compound 1198504] | 77 | 46 | 27 | 24 | 100 |
| 1198935 (kG*kA*dT*dT*dT*dA*dG*dG*dA*dT*dG*k[5mC]*dA*kT*dG*kG; antisense) [compound 1198935] | 50 | 46 | 23 | 11 | 40 |
| 1197217 (kT*kT*kA*dA*dA*dG*dT*dG*dT*dA*dT*dG*dT*k[5mC]*kA*kG) [compound 1197217] | 66 | 39 | 14 | 4 | 100 |
| 1198569 (CACTTTTACATTAGGA; modified gapmer, chemistry not fully specified) [compound 1198569] | 71 | 45 | 22 | 14 | 100 |
| 1198624 (kA*k[5mC]*kT*dA*dA*dG*dT*dA*dA*dG*dG*dT*kT*kT*k[5mC]*e[5mC]; antisense) [compound 1198624] | 62 | 37 | 21 | 9 | 100 |
| 1198656 (kG*k[5mC]*dA*d[5mC]*dT*dT*dT*dT*dA*d[5mC]*dA*dT*kT*eA*kG*eG; antisense) [compound 1198656] | 55 | 22 | 8 | 3 | < 30 |
